Patent US11331289B2, “Antimicrobial composition” (priority 2017, dated 2022)

Legend:
[1] = test system: MRSP 16125; test: Time-killing curve, inoculum 5.10^5 CFU/ml (MIC 0.5 μg/ml); type: cell-based, Staphylococcus pseudintermedius
Description: (§1) The objective of this study is to assess in vitro the time-killing curves of oxyclozanide against four strains of Methicillin-Resistant Staphylococcus from dogs.
(§2) Two Methicillin-Resistant Staphylococcus aureus (MRSA) and two Methicillin-Resistant Staphylococcus pseudintermedius (MRSP) isolated from the clinics have been tested.
(§3) The assessment of time-killing curves has been realized by a broth macrodilution method (Mueller-Hinton II Broth).
(§4) Oxyclozanide is diluted in (DMSO) into sterile tubes in order to obtain the following concentrations from 800 to 6.25 μg/ml. Those concentrations and stock standard solution are then diluted (1/10) in Mueller-Hinton II Broth in order to obtain the following concentrations from […] (See Table 2).
(§5) Each operation is performed under sterile conditions. Each working standard solution (10*the final active ingredient concentration) is distributed in tubes (1 ml, for a final volume of 10 ml after addition of 9 ml of inoculum). One tube without active ingredient is used as growth control (Concentration=0).
(§6) Bacterial isolates are sub-cultured from one cryobead on Columbia agar supplemented with 5% of blood. Pure cultures are incubated during 18-24 hours at 37° C. Three to five isolated colonies of similar appearance are selected from a previous culture and transferred into tubes containing 9 ml of Mueller-Hinton II Broth. The broth is incubated during 12-18 hours at 37° C. 0.5 to 1 ml of this broth is inoculated to another Mueller-Hinton II Broth 9 ml tube which is incubated during 3 to 4 hours at 37° C. to reach the exponential growth phase. The bacterial inoculum grown exponential phase is suspended to an optical density of McFarland standard scale 0.5 equivalent to a bacterial density of 10^8 CFU/ml and then adjusted to a concentration of about 5.10^5 CFU/ml as indicated by the guideline CLSI M26-A and to a second inoculum tested: 10^6 CFU/ml.
(§7) 9 ml of bacterial inoculum grown to exponential phase is added to 1 ml of active ingredient (or Mueller Hinton II Broth for the growth control). Tubes are incubated at 35° C. during 24 hours.
(§8) At times 0, 2, 4, 6 and 24 hours, 100 μl of broth of each tube is sampled and diluted in microplates:
(§9) Each well is re-cultured by streaking 10 μl on Columbia agar supplemented with 5% of blood. Plates are incubated at 37° C. during 18-24 hours incubation. Thus, residual bacterial concentrations are determined (CFU/ml). Results are expressed in log10 values of CFU/ml over-time in broth. Due to the procedure used, the minimal bacterial concentration that can be assessed is 10^2 CFU/ml.

[2] = test system: MRSP 16127; test: Time-killing curve, inoculum 10^6 CFU/ml (MIC 0.25 μg/ml); type: cell-based, Staphylococcus pseudintermedius
Description: as §1, §2, §3, §4, §5, §6, §7, §8, §9

[3] = test system: MRSA 16116; test: Time-killing curve, inoculum 10^6 CFU/ml (MIC 0.5 μg/ml); type: cell-based, Staphylococcus aureus
Description: as §1, §2, §3, §4, §5, §6, §7, §8, §9

SMILES: O=C(Nc1cc(Cl)cc(Cl)c1O)c1c(O)c(Cl)cc(Cl)c1Cl [Oxyclozanide]
- Counting results ([1]; 1 MIC, 0 h): 4.000E+05 CFU/ml
- Counting results ([1]; 1 MIC, 2 h): 2.600E+04 CFU/ml
- Counting results ([1]; 1 MIC, 4 h): 1.900E+04 CFU/ml
- Counting results ([1]; 1 MIC, 6 h): 1.300E+04 CFU/ml
- Counting results ([1]; 1 MIC, 24 h): 6.000E+05 CFU/ml
- Counting results ([1]; 2 MIC, 0 h): 4.000E+05 CFU/ml
- Counting results ([1]; 2 MIC, 2 h): 1.000E+02 CFU/ml
- Counting results ([1]; 2 MIC, 4 h): 3.000E+02 CFU/ml
- Counting results ([1]; 2 MIC, 6 h): 1.000E+02 CFU/ml
- Counting results ([1]; 2 MIC, 24 h): 2.000E+02 CFU/ml
- Counting results ([1]; 4 MIC, 0 h): 4.000E+05 CFU/ml
- Counting results ([1]; 4 MIC, 2 h): 1.000E+02 CFU/ml
- Counting results ([1]; 4 MIC, 4 h): 1.000E+02 CFU/ml
- Counting results ([1]; 4 MIC, 6 h): 1.000E+02 CFU/ml
- Counting results ([1]; 4 MIC, 24 h): 1.000E+02 CFU/ml
- Counting results ([1]; 8 MIC, 0 h): 4.000E+05 CFU/ml
- Counting results ([1]; 8 MIC, 2 h): 1.000E+02 CFU/ml
- Counting results ([1]; 8 MIC, 4 h): 1.000E+02 CFU/ml
- Counting results ([1]; 8 MIC, 6 h): 1.000E+02 CFU/ml
- Counting results ([1]; 8 MIC, 24 h): 1.000E+02 CFU/ml
- Counting results ([1]; 16 MIC, 0 h): 4.000E+05 CFU/ml
- Counting results ([1]; 16 MIC, 2 h): 1.000E+02 CFU/ml
- Counting results ([1]; 16 MIC, 4 h): 1.000E+02 CFU/ml
- Counting results ([1]; 16 MIC, 6 h): 1.000E+02 CFU/ml
- Counting results ([1]; 16 MIC, 24 h): 1.000E+02 CFU/ml
- Time to obtain bactericidal effect at 4 MIC ([1]; 16125/5.10^5 CFU/ml, >=3 log10 decrease in CFU): 2 h
- Counting results ([1]; ¼ MIC, 0 h): 4.000E+05 CFU/ml
- Counting results ([1]; ¼ MIC, 2 h): 5.500E+05 CFU/ml
- Counting results ([1]; ¼ MIC, 4 h): 2.600E+06 CFU/ml
- Counting results ([1]; ¼ MIC, 6 h): 1.600E+07 CFU/ml
- Counting results ([1]; ¼ MIC, 24 h): 4.900E+10 CFU/ml
- Counting results ([1]; ½ MIC, 0 h): 4.000E+05 CFU/ml
- Counting results ([1]; ½ MIC, 2 h): 3.800E+05 CFU/ml
- Counting results ([1]; ½ MIC, 4 h): 3.100E+05 CFU/ml
- Counting results ([1]; ½ MIC, 6 h): 3.400E+05 CFU/ml
- Counting results ([1]; ½ MIC, 24 h): 3.200E+08 CFU/ml
- Counting results ([2]; 1 MIC, 0 h): 9.000E+05 CFU/ml
- Counting results ([2]; 1 MIC, 2 h): 4.100E+05 CFU/ml
- Counting results ([2]; 1 MIC, 4 h): 4.000E+06 CFU/ml
- Counting results ([2]; 1 MIC, 6 h): 7.500E+06 CFU/ml
- Counting results ([2]; 1 MIC, 24 h): 9.000E+07 CFU/ml
- Counting results ([2]; 2 MIC, 0 h): 9.000E+05 CFU/ml
- Counting results ([2]; 2 MIC, 2 h): 4.100E+05 CFU/ml
- Counting results ([2]; 2 MIC, 4 h): 5.400E+05 CFU/ml
- Counting results ([2]; 2 MIC, 6 h): 2.500E+06 CFU/ml
- Counting results ([2]; 2 MIC, 24 h): 7.600E+06 CFU/ml
- Counting results ([2]; 4 MIC, 0 h): 9.000E+05 CFU/ml
- Counting results ([2]; 4 MIC, 2 h): 1.700E+04 CFU/ml
- Counting results ([2]; 4 MIC, 4 h): 1.500E+03 CFU/ml
- Counting results ([2]; 4 MIC, 6 h): 3.000E+02 CFU/ml
- Counting results ([2]; 4 MIC, 24 h): 8.000E+02 CFU/ml
- Counting results ([2]; 8 MIC, 0 h): 9.000E+05 CFU/ml
- Counting results ([2]; 8 MIC, 2 h): 5.200E+03 CFU/ml
- Counting results ([2]; 8 MIC, 4 h): 1.000E+02 CFU/ml
- Counting results ([2]; 8 MIC, 6 h): 1.000E+02 CFU/ml
- Counting results ([2]; 8 MIC, 24 h): 1.000E+02 CFU/ml
- Counting results ([2]; 16 MIC, 0 h): 9.000E+05 CFU/ml
- Counting results ([2]; 16 MIC, 2 h): 1.200E+03 CFU/ml
- Counting results ([2]; 16 MIC, 4 h): 1.000E+02 CFU/ml
- Counting results ([2]; 16 MIC, 6 h): 1.000E+02 CFU/ml
- Counting results ([2]; 16 MIC, 24 h): 1.000E+02 CFU/ml
- Time to obtain bactericidal effect at 4 MIC ([2]; 16127/10^6 CFU/ml, >=3 log10 decrease in CFU): 4 to 6 h
- Counting results ([2]; ¼ MIC, 0 h): 9.000E+05 CFU/ml
- Counting results ([2]; ¼ MIC, 2 h): 5.100E+05 CFU/ml
- Counting results ([2]; ¼ MIC, 4 h): 4.200E+06 CFU/ml
- Counting results ([2]; ¼ MIC, 6 h): 3.000E+07 CFU/ml
- Counting results ([2]; ¼ MIC, 24 h): 4.900E+10 CFU/ml
- Counting results ([2]; ½ MIC, 0 h): 9.000E+05 CFU/ml
- Counting results ([2]; ½ MIC, 2 h): 4.300E+05 CFU/ml
- Counting results ([2]; ½ MIC, 4 h): 3.700E+06 CFU/ml
- Counting results ([2]; ½ MIC, 6 h): 2.100E+07 CFU/ml
- Counting results ([2]; ½ MIC, 24 h): 3.400E+09 CFU/ml
- Counting results ([3]; 1 MIC, 0 h): 1.500E+06 CFU/ml
- Counting results ([3]; 1 MIC, 2 h): 3.300E+05 CFU/ml
- Counting results ([3]; 1 MIC, 4 h): 3.900E+05 CFU/ml
- Counting results ([3]; 1 MIC, 6 h): 1.600E+06 CFU/ml
- Counting results ([3]; 1 MIC, 24 h): 2.700E+07 CFU/ml
- Counting results ([3]; 2 MIC, 0 h): 1.500E+06 CFU/ml
- Counting results ([3]; 2 MIC, 2 h): 2.200E+04 CFU/ml
- Counting results ([3]; 2 MIC, 4 h): 1.400E+03 CFU/ml
- Counting results ([3]; 2 MIC, 6 h): 5.000E+02 CFU/ml
- Counting results ([3]; 2 MIC, 24 h): 5.900E+05 CFU/ml
- Counting results ([3]; 4 MIC, 0 h): 1.500E+06 CFU/ml
- Counting results ([3]; 4 MIC, 2 h): 2.000E+02 CFU/ml
- Counting results ([3]; 4 MIC, 4 h): 2.000E+02 CFU/ml
- Counting results ([3]; 4 MIC, 6 h): 1.000E+02 CFU/ml
- Counting results ([3]; 4 MIC, 24 h): 1.000E+02 CFU/ml
- Counting results ([3]; 8 MIC, 0 h): 1.500E+06 CFU/ml
- Counting results ([3]; 8 MIC, 2 h): 1.000E+02 CFU/ml
- Counting results ([3]; 8 MIC, 4 h): 1.000E+02 CFU/ml
- Counting results ([3]; 8 MIC, 6 h): 1.000E+02 CFU/ml
- Counting results ([3]; 8 MIC, 24 h): 1.000E+02 CFU/ml
- Counting results ([3]; 16 MIC, 0 h): 1.500E+06 CFU/ml
- Counting results ([3]; 16 MIC, 2 h): 3.000E+02 CFU/ml
- Counting results ([3]; 16 MIC, 4 h): 1.000E+02 CFU/ml
- Counting results ([3]; 16 MIC, 6 h): 1.000E+02 CFU/ml
- Counting results ([3]; 16 MIC, 24 h): 1.000E+02 CFU/ml
- Time to obtain bactericidal effect at 4 MIC ([3]; 16116/10^6 CFU/ml, >=3 log10 decrease in CFU): 2 h
- Counting results ([3]; ¼ MIC, 0 h): 1.500E+06 CFU/ml
- Counting results ([3]; ¼ MIC, 2 h): 2.800E+06 CFU/ml
- Counting results ([3]; ¼ MIC, 4 h): 2.600E+07 CFU/ml
- Counting results ([3]; ¼ MIC, 6 h): 3.000E+08 CFU/ml
- Counting results ([3]; ¼ MIC, 24 h): 3.900E+08 CFU/ml
- Counting results ([3]; ½ MIC, 0 h): 1.500E+06 CFU/ml
- Counting results ([3]; ½ MIC, 2 h): 3.000E+06 CFU/ml
- Counting results ([3]; ½ MIC, 4 h): 3.600E+07 CFU/ml
- Counting results ([3]; ½ MIC, 6 h): 2.300E+08 CFU/ml
- Counting results ([3]; ½ MIC, 24 h): 3.100E+08 CFU/ml
